Data reported in US9428477B2, “Trans-2-decenoic acid derivative and drug containing same” (NIPPON ZOKI PHARMACEUTICAL CO., LTD., priority 2012, dated 2016).

What was measured:
MIA-induced OA rats = experiment: Analgesic action against osteoarthritis model rats (MIA-induced OA), von Frey test; assay type: in vivo, rat; conditions: intraperitoneally, single dose of 500 μg/kg, hyperalgesia of OA induced by MIA
Procedure: (§1) The rats of the above (1) were placed in a transparent acrylic cage with a wire-meshed floor and habituated for about three minutes, and the 50% reaction threshold values to the mechanical stimulus of right hind limb were measured before administration of the test drug and after 1 and 5 hours from the initiation of the administration.
The measurement was conducted using von Frey filaments (manufactured by North Coast Medical Inc.) in accordance with the methods of Chaplan, et al. (Journal of Neuroscience Methods, 53(1), 55-63, 1994) and Dixon, et al. (Annual Review of Pharmacology and Toxicology, 20, 441-462, 1980). […] The case where the rat escaped at the instance of removing the filament was also called positive. When the positive reaction was found, stimulus was applied similarly with a filament of one rank weaker, and in the absence of the reaction, stimulus was similarly applied with a filament of one rank stronger, and a point where the reaction changed from negative to positive or from positive to negative was called the first two reactions. Subsequently, stimuli were applied for continuously four times by the same up-down method. A 50% reaction threshold value to the mechanical stimulus was measured using the reaction to the six stimuli in total and then (mean value)±(standard error) for each group was calculated. Incidentally, when stimulus reached to a load of 15.0 g without positive reaction, or when positive reaction continued to a load of 0.4 g, 15.0 g or 0.25 g was adopted as each of 50% reaction threshold values. With regard to the higher 50% reaction threshold value between the 50% threshold values after 1 hour and 5 hours from administration of a test drug, a recovery rate (%) of the 50% reaction threshold value was calculated by the following expression in which 15 was taken as a normal threshold value. […]
A 50% reaction threshold value to the mechanical stimulus of male Wistar rats of six weeks age was measured (the measurement method will be mentioned later), and a normal control group was selected. […]
With regard to the male Wistar rats of six weeks age used as experimental animals except the normal control group, their 50% reaction threshold values to the mechanical stimulus (the measuring method will be mentioned later) and body weights were measured after 24 days from the administration of MIA mentioned in (1) and then 3 groups, i.e. a normal control group, an onset control group, and a test drug-administered group, six rats per group, were organized. […]

[1] = test system: rats with paclitaxel-induced peripheral nerve disorder; experiment: Rat peripheral nerve disorder induced by paclitaxel, von Frey test; assay type: in vivo; conditions: ip, test drug intraperitoneally, single dose, higher of values 1 and 5 hours after administration, mechanical stimulus of right hind limb, normal threshold 15, read-out: Recovery Rate of 50% Reaction Threshold Value
Procedure: The effects of the compounds of the present invention were evaluated for a peripheral nerve disorder which is a side effect induced by the administration of an anti-cancer agent paclitaxel, such as hyperesthesia including allodynia induced by mechanical stimuli, which is a severe pain induced by such tactile stimuli which usually cause no pains. The compound of the present invention was intraperitoneally administered to rats as a test drug to conduct a von Frey test.
Male SD rats of six weeks age (six rats per group) were used as experimental animals, and paclitaxel (2 mg/kg) was intraperitoneally administered every other day for four times in total to prepare rats with paclitaxel-induced peripheral nerve disorder. During the period of 18 to 25 days or during the period of 20 to 27 days after the initiation of paclitaxel administration, the test drug was intraperitoneally administered in a single dose of […], and the following von Frey test was conducted.
as §1
The measurement was conducted using von Frey filaments (manufactured by North Coast Medical Inc.) in accordance with the methods of Chaplan, et al. (Journal of Neuroscience Methods, 53(1), 55-63, 1994) and Dixon, et al. (Annual Review of Pharmacology and Toxicology, 20, 441-462, 1980). […] The case where the rat escaped at the instance of removing the filament was also called positive. When the positive reaction was found, stimulus was applied similarly with a filament of one rank weaker, and in the absence of the reaction, stimulus was similarly applied with a filament of one rank stronger, and a point where the reaction changed from negative to positive or from positive to negative was called the first two reactions. Subsequently, stimuli were applied for continuously four times by the same up-down method. A 50% reaction threshold value to the mechanical stimulus was measured using the reaction to the six stimuli in total and then (mean value)±(standard error) for each group was calculated. Incidentally, when stimulus reached to a load of 15.0 g without positive reaction, or when positive reaction continued to a load of 0.4 g, 15.0 g or 0.25 g was adopted as each of 50% reaction threshold values. With regard to the higher 50% reaction threshold value between the 50% threshold values after 1 hour and 5 hours from administration of a test drug, a recovery rate (%) of the 50% reaction threshold value was calculated by the following expression in which 15 was taken as a normal threshold value.
Recovery rate (%) of 50% reaction threshold value=[(50% reaction threshold value after 1 hour or 5 hours from administration of test drug)−(50% reaction threshold value before administration of test drug)]/[(Normal threshold value)−(50% reaction threshold value before administration of test drug)]×100

MAP kinase (ERK 1/2) = experiment: Activation (phosphorylation) of MAP kinase in cultured cerebral cortex nerve cells, Western immunoblotting; assay type: cell-based; conditions: 0.5 h; fetal rat cerebral cortex nerve cells; compound 250 μg/ml in 0.1% DMSO; 30 minutes; relative to control = 1.00; read-out: Ratio of pMAPK to MAPK
Procedure: With regard to the compounds of the present invention, the activation of MAP kinase (ERK 1/2) was measured in accordance with a Western immunoblotting in the following manner.
Nerve cells were dispersed from cerebral cortex of a fetal rat of 17 days age, and the nerve cells were cultured for one day in a Dulbecco's modified Eagle's medium (DMEM) containing 5% fetal bovine serum. The culture medium was exchanged with a serum-free medium (B27 supplemented Neurobasal; Invitrogen), and the nerve cells were cultured at the density of 20,000 to 40,000 cells/cm^2 in a polyornithine-coated culture dish.
After three days, the compound of the present invention was added, and the culture was continued for 30 minutes. Thereafter, the cells were recovered on ice using a solution containing a phosphatase inhibitor where Tris-HCl buffer was used as a base. The protein concentration of the resulting cell extract was quantified with a BCA Protein Assay Kit (Takara Bio Co., Ltd.), and a certain amount of the protein (3 μg for the measurement of MAP kinase and 5 μg for the measurement of phosphorylated MAP kinase) was subjected to polyacrylamide gel electrophoresis. The protein was transferred from the electrophoresed gel to a PVDF membrane, and Western immunoblotting was carried out using each of an anti-MAP kinase antibody (Cell Signaling Technology) and an anti-phosphorylated MAP kinase antibody (Cell Signaling Technology) of the primary antibody.
Subsequently, the reaction with an alkaline phosphatase-labeled anti-rabbit IgG antibody (Promega) of the secondary antibody was carried out, and the enzymatic activity was allowed to develop color, to measure MAP kinase (MAPK) and the phosphorylated MAP kinase (pMAPK).
Incidentally, each of the compounds of the present invention was dissolved in 0.1% DMSO to adjust its concentration to 250 μg/ml. As to the control, 0.1% DMSO was added.
The intensity of the concentration of the bands of eletrophoresed the gel was calculated and quantified using Image J (K. K. Bioarts). The numerical values for the MAPK when using the compounds of the present invention were each divided by the numerical value for the MAPK of the control, and the numerical values for the pMAPK when using the compounds of the present invention were divided by the numerical value for the pMAPK of the control, whereby a ratio of the MAPK when using each of the compounds of the present invention to the control, and a ratio of the pMAPK when using each of the compounds of the present invention to the control were obtained. Subsequently, the ratio of the pMAPK to the control obtained was divided by the ratio of the MAPK to the control to obtain a ratio of the pMAPK to the MAPK.

| melting point | Structure (SMILES) | Recovery Rate of 50% Reaction Threshold (MIA-induced OA rats) | change in vivo at 0.3 mg/kg [1] | fold induction at 250 µg/mL (MAP kinase (ERK 1/2)) |
| --- | --- | --- | --- | --- |
|  | CCCCCCC/C=C/C(=O)N1CCCC1 [Compound 1, 1-((E)-2-Decenoyl)pyrrolidine] | 24.2% | 58.2% |  |
|  | CCCCCCC/C=C/C(=O)N1CCCCC1 [Compound 5, 1-((E)-2-Decenoyl)piperidine] | 35.8% | 41.6% |  |
|  | CCCCCCC/C=C/C(=O)N1CCSCC1 [Compound 18, 4-((E)-2-decenoyl)thiomorpholine] |  | 48.9% | 1.28 |
|  | CCCCCCC/C=C/C(=O)N1CCN(C(C)C)CC1 [Compound 20, 1-((E)-2-Decenoyl)-4-isopropylpiperazine] |  | 26.9% | 1.27 |
| 53 to 55 °C | CCCCCCC/C=C/C(=O)N1CCN(CCC(=O)O)CC1 [Compound 21, 3-[4-((E)-2-decenoyl)piperazin-1-yl]propionic acid] |  | 34.8% | 1.54 |
|  | CCCCCCC/C=C/C(=O)N1CCN(CCN(C)C)CC1 [Compound 22, 1-((E)-2-Decenoyl)-4-[2-(dimethylamino)ethyl]piperazine] | 13.2% | 29.7% |  |
| 33 to 34 °C | CCCCCCC/C=C/C(=O)N1CCN(C2CCCCC2)CC1 [Compound 23, 4-Cyclohexyl-1-((E)-2-decenoyl)piperazine] |  | 33% | 1.3 |
|  | CCCCCCC/C=C/C(=O)N1CCN(CCN2CCCCC2)CC1 [Compound 24, 1-((E)-2-Decenoyl)-4-(2-piperidin-1-ylethyl)piperazine] |  | 49.7% | 2.58 |
|  | CCCCCCC/C=C/C(=O)N1CCN(c2ccccc2)CC1 [Compound 25, 1-((E)-2-Decenoyl)-4-phenylpiperazine] | 18.9% | 55.3% |  |
| 62 to 63 °C | CCCCCCC/C=C/C(=O)N1CCN(Cc2ccccc2)CC1 [Compound 26, 4-Benzyl-1-((E)-2-decenoyl)piperazine] |  | 24.1% | 1.48 |
| 33 to 34 °C | CCCCCCC/C=C/C(=O)N1CCN(CCc2ccccc2)CC1 [Compound 27, 1-((E)-2-Decenoyl)-4-(2-phenylethyl)piperazine] |  | 69.1% | 1.44 |
